Experimental data reported in patent publication US20240150301A1, “METHODS OF MODULATING ANDROGEN RECEPTOR CONDENSATES” (ETERN BIOPHARMA (SHANGHAI) CO., LTD., priority 2021, published 2024).

How the values were obtained:
[1] = biological target: T1, AR-mEGFP nuclear puncta in LNCaP cells (Homo sapiens, UniProt P10275); assay: AR phase separation inhibition IC50 testing (nuclear puncta imaging); assay type: cell-based; conditions: for IC50: LNCaP, compound 3 h before 20 nM DHT, 3 h DHT
T1 construct: expressed in transfected cells; host or cells: LNCaP
T1 sequence (P10275 1-920): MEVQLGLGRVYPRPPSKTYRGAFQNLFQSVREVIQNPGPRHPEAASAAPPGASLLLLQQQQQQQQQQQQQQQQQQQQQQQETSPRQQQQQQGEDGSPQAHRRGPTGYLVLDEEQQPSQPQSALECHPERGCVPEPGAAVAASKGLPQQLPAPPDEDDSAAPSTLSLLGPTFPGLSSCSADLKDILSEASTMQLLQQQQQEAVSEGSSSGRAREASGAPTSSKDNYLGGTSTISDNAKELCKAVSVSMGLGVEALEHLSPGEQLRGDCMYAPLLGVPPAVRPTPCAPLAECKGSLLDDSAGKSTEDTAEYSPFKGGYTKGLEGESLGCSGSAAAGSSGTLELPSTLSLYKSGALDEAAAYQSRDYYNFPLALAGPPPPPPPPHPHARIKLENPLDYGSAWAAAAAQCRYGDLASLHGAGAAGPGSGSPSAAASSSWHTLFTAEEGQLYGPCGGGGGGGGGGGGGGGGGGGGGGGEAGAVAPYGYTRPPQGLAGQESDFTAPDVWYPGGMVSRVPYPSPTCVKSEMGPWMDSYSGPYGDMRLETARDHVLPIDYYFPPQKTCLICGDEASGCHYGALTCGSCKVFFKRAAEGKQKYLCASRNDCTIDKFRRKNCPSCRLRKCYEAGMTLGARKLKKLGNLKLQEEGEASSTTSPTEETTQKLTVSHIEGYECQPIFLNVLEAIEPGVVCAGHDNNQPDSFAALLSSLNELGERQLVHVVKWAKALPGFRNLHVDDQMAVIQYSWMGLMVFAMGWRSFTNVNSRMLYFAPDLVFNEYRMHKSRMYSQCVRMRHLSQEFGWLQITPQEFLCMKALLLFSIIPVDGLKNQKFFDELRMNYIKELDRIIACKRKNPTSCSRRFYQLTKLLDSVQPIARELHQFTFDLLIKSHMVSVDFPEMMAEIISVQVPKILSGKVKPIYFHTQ
Procedure: Nuclear Puncta Imaging for Compounds IC50 Determination • LNCaP cells were cultured in a 10-cm dish. Cells were transfected with AR (AR or AR F877L/T878A)-mEGFP expression plasmids (pMSCV vector, 12 μg plasmid per 10-cm dish). 12 hours after transfection, medium were replaced with steroid hormone-free and phenol red-free RPMI1640 (starvation medium) and continued to starve for another 24 hours. Cells (80 μl, 20,000 per well) were seeded in a 96-well glass bottom plate (Cellvis, P96-1.5H-N) and cultured for another 24 hours. Then cells were incubated with 10× serial-diluted compounds […] for 3 hours before 20 nM DHT stimulation […]. After 3 hours DHT addition, cells were fixed with equal volume pre-warmed 8% PFA for 30 minutes and subsequently replaced with 100 μl PBS. Nuclear puncta images were acquired with Operetta CLS (Perkin Elmer) equipped with 60× water immersion lens (40 fields per well). The images were analyzed with Operetta built-in analysis modules. Nuclei were found from illumination corrected images with find nuclei module (type M) and filtered out low intensity nuclei. Subsequently puncta were first identified using find spot module (type A) and classified to high confident puncta and low confident puncta with PhenoLOGIC machine learning plug-in. For better representation, only high confident puncta were kept. The analyzed image puncta data were exported and statistics were processed with R/Bioconductor. The specific IC50 values were calculated by R/drc package (four-parameter log-logistic function).

[2] = biological target: T2, AR V7 (Homo sapiens, UniProt P10275); assay: ARE-luciferase reporter assay in HEK293T cells cotransfected with AR-V7; assay type: cell-based; parameters: host or cells: HEK293T; conditions: HEK293T cotransfected with AR-V7, hormone-starved, 24 h; read-out: HEK293T(V7) ARE-luc IC50
T2 sequence (P10275 1-644 isoform P10275-3): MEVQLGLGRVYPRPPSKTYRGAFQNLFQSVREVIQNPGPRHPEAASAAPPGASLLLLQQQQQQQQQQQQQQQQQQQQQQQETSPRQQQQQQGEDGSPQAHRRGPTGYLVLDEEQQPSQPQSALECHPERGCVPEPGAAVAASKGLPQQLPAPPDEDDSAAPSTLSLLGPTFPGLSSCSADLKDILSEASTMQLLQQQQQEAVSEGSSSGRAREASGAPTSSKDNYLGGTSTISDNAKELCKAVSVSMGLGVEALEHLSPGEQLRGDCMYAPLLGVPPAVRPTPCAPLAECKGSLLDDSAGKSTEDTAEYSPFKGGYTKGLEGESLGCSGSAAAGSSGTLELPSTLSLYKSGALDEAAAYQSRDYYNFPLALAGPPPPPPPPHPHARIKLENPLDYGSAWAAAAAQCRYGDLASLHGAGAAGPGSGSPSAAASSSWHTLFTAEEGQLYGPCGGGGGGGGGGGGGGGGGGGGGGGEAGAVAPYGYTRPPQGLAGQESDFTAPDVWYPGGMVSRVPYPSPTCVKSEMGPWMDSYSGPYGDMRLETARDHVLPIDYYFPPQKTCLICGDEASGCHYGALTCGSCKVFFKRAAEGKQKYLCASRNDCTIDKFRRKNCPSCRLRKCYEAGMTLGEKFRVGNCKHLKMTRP
Procedure: The ARE-luciferase reporter plasmid contains functional AREs (androgen response elements) to which AR binds in response to androgen to induce luciferase activity. LNCaP (Cobioer) cells were transiently transfected with the ARE-luciferase reporter in charcoal stripped FBS/phenol red-free RPMI medium prior to treatment for 24 hours. Then DMSO or test compounds with serial diluted concentrations were added one hour prior to the addition of DHT(1 nM). After 24 h of incubation with DHT, cells were lysed and luciferase activity was assayed using the ONE-Glo™ Luciferase Assay System (Promega) and measured using EnVision Multimode Plate Reader, according to manufacturer's instructions. Values were normalized to cell viability determined by CellTiter-Glo® Luminescent Cell Viability Assay Kit (Promega). […] GraphPad Prism graphing software was used to calculate IC50 values.
To evaluate the transcriptional activity of AR-V7, HEK293T(Cobioer) cells were transiently cotransfected with an expression vector for AR-V7 and the ARE-luciferase reporter in hormone-starved conditions. For 22Rv1(Cobioer) prostate cancer cell line, which expresses endogenous AR-V7, ARE-luciferase reporter was transiently transfected in hormone-starved conditions. 24 h after transfection, DMSO or test compounds with serial diluted concentrations were added for additional 24 h incubation. Reporter activity was detected and normalized by cell viability as described above. Treatments were normalized to DMSO control activity, and IC50 values were further determined via GraphPad Prism graphing software.

AR phase separation (FIG. 7) [1] | IC50 [1] [µM] | IC50 [2] [µM] | Compound
inhibited AR phase separation | 3.6 | 2.1 | CC(C)(c1ccc(OCc2ccnc(N=S3(=O)CCNCC3)n2)cc1)c1cc(Cl)c(OCCCl)c(C#N)c1 [Compound 6, 3-chloro-2-(2-chloroethoxy)-5-(2-(4-((2-((1-oxido-1λ^6-thiomorpholin-1-ylidene)amino)pyrimidin-4-yl)methoxy)phenyl)propan-2-yl)benzonitrile]
inhibited AR phase separation | 2.5 | 8.9 | CC(C)(c1ccc(C#Cc2cnc(NS(C)(=O)=O)nc2)cc1)c1cc(Cl)c(OCCCl)c(C#N)c1 [Compound 60, N-(5-((4-(2-(3-chloro-4-(2-chloroethoxy)-5-cyanophenyl)propan-2-yl)phenyl)ethynyl)pyrimidin-2-yl)methanesulfonamide]
did not show inhibition | > 20 | > 20 | CC(C)(c1ccc(OCc2ccnc(NS(C)(=O)=O)n2)cc1)c1cc(Cl)c(OCCCl)c(C#N)c1 [Compound AA, N-(4-((4-(2-(3-chloro-4-(2-chloroethoxy)-5-cyanophenyl)propan-2-yl)phenoxy)methyl)pyrimidin-2-yl) methane sulfonamide, reference compound]
